≈ marks a conversion by molar mass, not a printed value. Values belong to the compound of their own block, whether it stands above or below them.
What was measured:
Assay type in all cases: cell-based
[1] = system: Pasteurella multocida (Kobe-6); assay: Antibacterial activity (IC), broth microplate as in Example 4 (Example 6, Table 41); settings: 18 h, origin pig
Method: (§1) A suitable amount of a sample was dissolved in dimethylsulfoxide (DMSO), and the resultant solution was diluted with the same amount of sterilized distilled water to prepare a bulk sample of 1,000 µg/ml. Mueller-Hinton broth (product of DIFCO) was dispensed into each well of 96-well microplate. Thereafter, the bulk specimen was added to the first well of a row, and successively diluted (10-fold each time) with sterilized distilled water. Separately, a bacterial cell suspension for the test (Staphylococcus aureus 209-P) which had been cultured in the above-mentioned broth overnight at 37°C was inoculated to each well so that the final inoculation amount of 10^6 CFU/ml was attained. The final concentrations of the samples were 100, 10, and 1 µg/ml.
(§2) The antibacterial action was evaluated by the inhibitory concentration (hereinafter abbreviated as IC) at which propagation of the bacteria cultured at 37°C for 18 hours was inhibited. Inhibition was determined by the turbidity of the medium. The expressions "IC≤100", "≤10", and "≤1" indicate that MIC-equivalent values obtained at the succesive […] dilution of the sample are 100-10 µg/ml, 10-1 µg/ml, and not more than 1 µg/ml, respectively. […] (In the subsequent Examples, the same rule applies correspondingly.) Table 39
In a manner similar to that described in Example 4, antibacterial activity of the invention compound was determined. The bacterium used for the test was Pasteurella Kobe-6 (origin: pig; Pasteurella multocida).

[2] = system: Staphylococcus aureus 209-P; assay: Antibacterial activity (IC), Mueller-Hinton broth, 96-well microplate (Example 4, Table 39); settings: 37°C, 18 hours
Method: as §1, §2

[3] = system: Staphylococcus aureus TI-1; assay: Antibacterial activity (IC), broth microplate as in Example 4 (Example 5, Table 40); settings: TI1, 18 h
Method: as §1, §2
In a manner similar to that described in Example 4, antibacterial activity of the invention compound was determined. The bacterium used for the test was Staphylococcus aureus TI-1.

[4] = system: Bordetella bronchiseptica (SM2-4); assay: Antibacterial activity (IC), broth microplate as in Example 4 (Example 7, Table 42); settings: 18 h
Method: as §1, §2
In a manner similar to that described in Example 4, antibacterial activity of the invention compound was determined. The bacterium used for the test was Bordetella bronchiseptica (SM2-4).

[5] = system: Streptococcus aureus (TI-1); assay: Antibacterial activity (IC), agar as in Example 8 (Example 16, Table 49); settings: 18 h
Method: as §2
(§3) A suitable amount of a sample was dissolved in dimethylsulfoxide (DMSO), after which the resulting solution was diluted with the same amount of sterilized distilled water to prepare a bulk sample of 1,000 µg/ml. Separately, a bacterial liquid for the test (methicillin-resistant Staphylococcus aureus (MRSA) isolated from humans) which had been cultured in Mueller-Hinton broth (product of DIFCO) was prepared and inoculated to a Mueller-Hinton agar (product of DIFCO) containing the sample so that the final inoculation amount of 10^6 CFU/ml was achieved. The final concentrations of the samples were 100, 10, and 1 µg/ml.
(§4) After culturing at 37°C for 18 hours, the antibacterial activity was evaluated in terms of IC in a manner similar to that described in Example 4.
In a manner similar to that described in Example 8, antibacterial activity of the invention compound was determined. The bacterium used for the test was […] aureus (TI-1).

[6] = system: Pasteurella multocida (Kobe-6); assay: Antibacterial activity (IC), agar as in Example 8 (Example 17, Table 50); settings: 18 h, origin pig
Method: as §2, §3, §4
In a manner similar to that described in Example 8, antibacterial activity of the invention compound was determined. The bacterium used for the test was Pasteurella Kobe-6 (origin: pig, Pasteurella multocida).

[7] = system: Enterococcus from fish; assay: Antibacterial activity (IC), agar as in Example 8, media with 1.5% NaCl, 25°C (Example 20, Tables 53-55)
Method: as §2, §3, §4
(§5) In a manner similar to that described in Example 8, antibacterial activity of a variety of ketonitrile derivatives shown in Tables 53-55 was measured. The bacteria used for the test were Enterococcus and Pasteurella from fish. The culture conditions were such that the media contained 1.5% NaCl, and the culture temperature was 25°C.

[8] = system: Pasteurella from fish; assay: as above
Method: as §2, §3, §4, §5

[9] = system: Staphylococcus aureus (209-P); assay: Antibacterial activity (IC), agar as in Example 8 (Example 15, Table 48); settings: 18 h
Method: as §2, §3, §4
The bacterium used for the test was Staphylococcus aureus (209-P).

[10] = system: methicillin-resistant Staphylococcus aureus (MRSA) from humans; assay: Antibacterial activity (IC), agar as in Example 8 (Example 19, Table 52); settings: 18 h
Method: as §2, §3, §4
In a manner similar to that described in Example 8, antibacterial activity of a variety of ketonitrile derivatives shown in Table 52 was measured. The bacterium used for the test was methicillin-resistant Staphylococcus aureus (MRSA) from humans.

SMILES: CC(Oc1ccc(Oc2ccc(C(F)(F)F)cn2)cc1)C(=O)C(C#N)c1ccc(Cl)cc1Cl (centres unmarked) [Compound No. 1]
MIC [1]: 10 to 100 µg/mL (≈ 20.2 to 202 µM)
MIC [2]: 1 to 10 µg/mL (≈ 2.02 to 20.2 µM)
MIC [3]: 1 to 10 µg/mL (≈ 2.02 to 20.2 µM)

SMILES: CC(Oc1ccc(Oc2ncc(C(F)(F)F)cc2Cl)cc1)C(=O)C(C#N)c1cccc(Cl)c1 (centres unmarked) [Compound No. 10]
MIC [1]: 10 to 100 µg/mL (≈ 20.2 to 202 µM)
MIC [2]: 1 to 10 µg/mL (≈ 2.02 to 20.2 µM)
MIC [3]: 1 to 10 µg/mL (≈ 2.02 to 20.2 µM)

SMILES: CCC(Oc1ccc(Oc2ncc(C(F)(F)F)cc2Cl)cc1)C(=O)C(C#N)c1ccc(Cl)cc1Cl (centres unmarked) [Compound No. 15]
MIC [1]: 10 to 100 µg/mL (≈ 18.4 to 184 µM)
MIC [2]: 1 to 10 µg/mL (≈ 1.84 to 18.4 µM)
MIC [3]: 1 to 10 µg/mL (≈ 1.84 to 18.4 µM)

SMILES: CC(Oc1cccc(Oc2ccc(Br)cc2F)c1)C(=O)C(C#N)c1cccc(Br)c1 (centres unmarked) [Compound No. 111, 4-[3-(4-bromo-2-fluorophenoxy)phenoxy]-2-(3-bromophenyl)-3-oxopentanonitrile]
MIC [5]: 1 to 10 µg/mL (≈ 1.88 to 18.8 µM)
MIC [6]: 10 to 100 µg/mL (≈ 18.8 to 188 µM)
IC ([7]; Enterococcus Seriolicida HI): ≤10 (10-1 µg/ml)
IC ([7]; Enterococcus Seriolicida KG86050): ≤10 (10-1 µg/ml)
IC ([7]; Enterococcus Seriolicida MS89060): ≤10 (10-1 µg/ml)
IC ([7]; Enterococcus Seriolicida MS89064): ≤10 (10-1 µg/ml)
IC ([7]; Enterococcus Seriolicida MS89066): ≤10 (10-1 µg/ml)
IC ([7]; Enterococcus Seriolicida MS89068): ≤10 (10-1 µg/ml)
IC ([7]; Enterococcus Seriolicida SE94-001): ≤10 (10-1 µg/ml)
MIC ([7]; Enterococcus Seriolicida SE94-002): 1 to 10 µg/mL (≈ 1.88 to 18.8 µM)
IC ([7]; Enterococcus Seriolicida SE94-003): ≤10 (10-1 µg/ml)
IC ([7]; Enterococcus Seriolicida SE94-004): ≤10 (10-1 µg/ml)
IC ([7]; Enterococcus Seriolicida SE94-005): ≤10 (10-1 µg/ml)
MIC ([8]; Pasteurella piscicida KP94-02): 10 to 100 µg/mL (≈ 18.8 to 188 µM)
IC ([8]; Pasteurella piscicida KP94-04): ≤100 (MIC-equivalent values obtained at the succesive 2-fold dilution of the sample are 100-10 µg/ml)
IC ([8]; Pasteurella piscicida KP94-05): ≤100 (MIC-equivalent values obtained at the succesive 2-fold dilution of the sample are 100-10 µg/ml)
IC ([8]; Pasteurella piscicida KP94-06): ≤100 (MIC-equivalent values obtained at the succesive 2-fold dilution of the sample are 100-10 µg/ml)
MIC [9]: 1 to 10 µg/mL (≈ 1.88 to 18.8 µM)
MIC ([10]; MRSA strain 891179): 1 to 10 µg/mL (≈ 1.88 to 18.8 µM)
MIC ([10]; MRSA strain 891185): 1 to 10 µg/mL (≈ 1.88 to 18.8 µM)
MIC ([10]; MRSA strain 891187): 1 to 10 µg/mL (≈ 1.88 to 18.8 µM)
MIC ([10]; MRSA strain 891192): 1 to 10 µg/mL (≈ 1.88 to 18.8 µM)
MIC ([10]; MRSA strain 900048): 1 to 10 µg/mL (≈ 1.88 to 18.8 µM)
MIC ([10]; MRSA strain 900056): 1 to 10 µg/mL (≈ 1.88 to 18.8 µM)

Continued, values first:

MIC [4]: 10 to 100 µg/mL (≈ 18.9 to 189 µM)
MIC [1]: 10 to 100 µg/mL (≈ 18.9 to 189 µM)
MIC [2]: 10 to 100 µg/mL (≈ 18.9 to 189 µM)
MIC [3]: 1 to 10 µg/mL (≈ 1.89 to 18.9 µM)
SMILES: CC(Oc1ccc(Oc2ncc(C(F)(F)F)cc2Cl)cc1)C(=O)C(C#N)c1ccc(Cl)cc1Cl (centres unmarked) [Compound No. 2, 4-[4-(3-chloro-5-trifluoromethyl-2-pyridyloxy)phenoxy]-2-(2,4-dichlorophenyl)-3-oxopentanonitrile]

MIC [4]: 10 to 100 µg/mL (≈ 19.4 to 194 µM)
SMILES: N#CC(C(=O)COc1ccc(Oc2ncc(C(F)(F)F)cc2Cl)cc1)c1ccc(Cl)cc1Cl (centres unmarked) [compound 9]

MIC [4]: 10 to 100 µg/mL (≈ 19.6 to 196 µM)
MIC [2]: 10 to 100 µg/mL (≈ 19.6 to 196 µM)
MIC [3]: 10 to 100 µg/mL (≈ 19.6 to 196 µM)
SMILES: CC(Oc1ccc(Oc2ncc(C(F)(F)F)cc2Cl)cc1)C(=O)C(C#N)c1cccc2ccccc12 (centres unmarked) [compound 14]

From patent EP0768085A1, “ANTIBACTERIAL AGENT” (DAIICHI PHARMACEUTICAL CO., LTD., priority 1994, dated 1996)
